Results reported in US20040109896A1, “Aqueous suspension eyedrops and process for producing the same” (priority 2001, published 2004).

Legend:
[1] = system: herpes virus; conditions: Crumpaker et al., Antimicrob. Agents Chemother. 15, 642 (1979); cited from earlier work
[2] = Laser diffraction particle size distribution analysis of acyclovir fine crystals; assay type: physicochemical; conditions: USP grade sterilized acyclovir fine crystals
Procedure: USP grade, sterilized acyclovir was used as fine crystals of acyclovir without any processing. Through laser diffraction particle size distribution analysis, the crystals were determined to have an average particle size of 25.9 μm.

Structure (SMILES): Nc1nc2c(ncn2COCCO)c(=O)[nH]1 [acyclovir, 9-[(2-hydroxyethoxy)methyl]guanine]
- ID50 (50% inhibition level) of acyclovir against herpes virus [1]: approximately 0.03 μg/mL
- average particle size [2]: 25.9 μm
